The test system of one data set is TZM-bl cells. In words: Cellular viability assay (alamarBlue) in TZM-bl cells. An excerpt:
In an embodiment, the cellular cytotoxicity of 17 spiro-β-lactams was investigated in TZM-bl cells using the AlamarBlue assay as recommended by the manufacturer (Invitrogen, USA). TZM-bl, previously designated JC53-bl (clone 13) is a HeLa cell line. The parental cell line (JC.53) stably expresses large amounts of CD4, CCR5 and CXCR4. The TZM-bl cell line was generated from JC.53 cells by introducing separate integrated copies of the luciferase and […] genes under control of the HIV-1 promoter. The TZM-bl cell line is highly sensitive to infection with diverse isolates of HIV.
In an embodiment, the cellular viability assay was carried out as follows: the potential in vitro cytotoxicity of all BSS compounds was evaluated in TZM-bl cells. TZM-bl cells (10000 cells/well in 96-well plates) were incubated in absence or presence of serial-two-fold dilutions of the compounds in growth medium (GM), with starting concentration of 100 μg/ml and a final concentration of 0.781 μg/ml. After 48 hours, cell viability was examined with alamarBlue reagent (Invitrogen, USA) according to manufacturer's instructions. Briefly, 10 μl of alamarBlue reagent was added to each well. After 4 hours at 37° C., the fluorescence was measured in Tecan Infinite M200 (excitation wavelength 550 nm and emission wavelength 600 nm).
In an embodiment, at least two independent experiments have been performed for each cytotoxicity analysis.
In an embodiment, for each assay there were medium controls (only growth medium), cell controls (cells without test compound) and cytotoxicity controls (a compound that kill cells—SDS).

Data set [1] has as its system Enterococcus faecalis ATCC 29212. In words: Anti-bacterial activity, agar diffusion method. The format is cell-based. The following applies: at the concentration of 1 mg/ml. The procedure: (§1) In an embodiment, anti-bacterial activity of the compounds now disclosed was determined according to CLSI guidelines. The following bacteria were used: reference strains E. coli ATCC 10536, Staphylococcus aureus ATCC 6538, Bacillus subtilis ATCC 6633 and Enterococcus faecalis ATCC 29212; clinical strains of E. coli and Pseudomonas aeruginosa isolated in our laboratory; and strains of Lactobacillus rhamnosus and Lactobacillus plantarum also isolated in our laboratory. The Minimum Inhibitory Concentration (MIC) was determined by the agar diffusion method, in plates of Mueller-Hinton agar or Rogosa agar (for Lactobacilli). Briefly, 10^8 cfu/ml bacterial suspensions were prepared in sterile water and spread in the culture media. Sterile disks containing different concentrations of P3 were placed on the inoculated surface. Plates were incubated at 37° C. for 24 h or 48 h. Lactobacilli were incubated at microaerophilic conditions. A negative control made of sterile water was used. Disks of amoxicillin and imipenem were used as positive controls.

Data set [2] relates to Escherichia coli (Clinical strain). Briefly: Anti-bacterial activity, agar diffusion method. It is filed as cell-based. To be noted: at the concentration of 1 mg/ml. As to the method:
as §1

Data set [3] relates to Escherichia coli ATCC 10536. In words: Anti-bacterial activity, agar diffusion method. The format is cell-based. To be noted: at the concentration of 1 mg/ml. As to the method:
as §1

The test system of the next data set is Lactobacillus plantarum. Briefly: Anti-bacterial activity, agar diffusion method. The format is cell-based. The following applies: at the concentration of 1 mg/ml. As to the method:
as §1

In data set [4] the test system is Staphylococcus aureus ATCC 6538. Briefly: Anti-bacterial activity, agar diffusion method. The format is cell-based. The following applies: at the concentration of 1 mg/ml. The procedure:
as §1

Data set [5] concerns Pseudomonas aeruginosa (Clinical strain). Briefly: Anti-bacterial activity, agar diffusion method. It is filed as cell-based. The following applies: at the concentration of 1 mg/ml. The procedure:
as §1

The test system of the next data set is Lactobacillus rhamnosus. Briefly: Anti-bacterial activity, agar diffusion method. The format is cell-based. To be noted: at the concentration of 1 mg/ml. The procedure: as §1
A further data set concerns HIV. In words: Anti-HIV activity evaluation (HIV type not specified). The format is cell-based. To be noted: both CCR-tropic isolates and CXCR4-tropic isolates; concentration of 15.2 μM. As to the method: In an embodiment, TZM-bl cells (AIDS Research and Reference Reagent Program, National Institutes of Health, USA) were cultured in complete growth medium that consists of Dulbecco's minimal essential medium (DMEM) supplemented with 10% fetal bovine serum (FBS), 100 U/ml of penicillin-streptomycin (Gibco/Invitrogen, USA), 1 mM of sodium pyruvate (Gibco/Invitrogen, USA), 2 mM of L-glutamine (Gibco/Invitrogen, USA) and 1 mM of non-essential amino acids (Gibco/Invitrogen, USA).
In an embodiment, the primary isolates 93AOHDC249, 93AOHDC250, 01PTHDECJN and 03PTHCC9, used in this study were previously isolated, titrated and characterized for co-receptor usage. HIV reference strain SG3.1 was obtained by transfection of HEK293T cells with pSG3.1 (HIV-1) plasmid using Fugene 6 reagent (Roche, Switzerland) according to manufacturer's instructions.
In an embodiment, the 50% tissue culture infectious dose (TCID50) of the virus was determined in a single-round viral infectivity assay using a luciferase reporter gene assay in TZM-bl cells and calculated using the statistical method of Reed and Muench^27.
In an embodiment, the antiviral activity of the compounds was determined in a single-round assay with TZM-bl cells as previously described ^26. […] After 48 h of infection, luciferase expression was quantified with the One-Glow luciferase assay substrate reagent (Promega, USA) according to manufacturer's instructions. […] After an incubation of 3 minutes at room temperature to allow complete cell lysis luminescence was measured in Tecan Infinite M200. Background luminescence was measured by using control wells that contained only target cells and GM. […]
In an embodiment, dose-response curves were estimated from the percentage of inhibition of infection (y-axis) against logo of concentration of each compound (x-axis) using the sigmoidal dose-response equation (variable slope) in GraphPad Prism version 5.00 for Windows (GraphPad Software, San Diego Calif. USA, www.graphpad.com). IC50 and IC90 values were determined from this curve. […]

Where two headings read alike, the source gives them in different places.

As to `COC(=O)C1=C[C@@]2(N=N1)C(=O)N1[C@@H](C(=O)O)C(C)(C)S[C@@H]12` [BSS-593, (2,3′R,5R)-5′-(methoxycarbonyl)-3,3-dimethyl-7-oxo-4-thia-1-azaspiro[bicyclo[3.2.0]heptane-6,3′-pyrazole]-2-carboxylic acid], the CC50 came out at 158 µM with TZM-bl cells (Table 2, TZM-bl cells, 48 hours, alamarBlue) and 158 µM with TZM-bl cells (read-out: CC50 (cytotoxic concentration 50%), Table 1, TZM-bl cells, 48 hours, alamarBlue). In addition, the inhibitory activity result (in data set [1]; in data set [2]; in [3]; in the data set on Lactobacillus plantarum; in data set [4]; in data set [5]) was “no inhibitory activity” in each case. In the data set with Lactobacillus rhamnosus, the inhibitory activity entry is reported as “no inhibitory activity”.

In the data set with TZM-bl cells, `CC1(C)S[C@H]2N(C(=O)[C@]23CC=C(C(=O)OCc2ccccc2)[C@@H]3C(=O)c2ccccc2)[C@H]1C(=O)OC(c1ccccc1)c1ccccc1` [BSS-730A] yielded a CC50 of 76.8 µM. Besides, in the data set on HIV, the “inhibition of the replication” value was “about 100%”. Also, the inhibitory activity result (in data set [1]; in data set [2]; in [3]; with Lactobacillus plantarum; in data set [4]; in [5]) was “no inhibitory activity” throughout. In addition, in the data set on Lactobacillus rhamnosus, the inhibitory activity result is reported as “no inhibitory activity”.

For the origin of these results see patent publication US11666559B2, “Spiro-lactam compounds, process and uses thereof” (UNIVERSIDADE DE COIMBRA, priority 2017, dated 2023).
